Assay results taken from patent publication US20260167673A1, “NOVEL POLYPEPTIDE, POLYPEPTIDE DERIVATIVE AND USE THEREOF” (NANJING ANJI BIOTECHNOLOGY CO., LTD., priority 2023, published 2026).
Marks after values point to notes of the source that are not given here. Where no end group is shown, it is not given here.

Assays:
Assay type in all cases: cell-based
[1] = test system: human neuroblastoma cells SH-SY5Y; assay: CCK8 proliferation inhibition, SH-SY5Y; conditions: 50 μM, 48 h
Protocol: (§1) Incubation was continued for 4 h in a cell incubator, an absorbance was measured at 450 nm, and a proliferation inhibition was calculated. Data was presented as mean±SD, and GraphPad Prism 5.0 statistical software was used. A t-test was used for comparison between two groups, while One-way Anova (Dunnett) was used for comparison among a plurality of groups.

[2] = test system: human oral epidermoid carcinoma cells KB; assay: CCK8 proliferation inhibition, KB; conditions: 50 μM, 48 h
Protocol: as §1

[3] = test system: human esophageal cancer cells Eca-109; assay: CCK8 proliferation inhibition, Eca-109; conditions: Eca-109, 50 μM, 48 h
Protocol: as §1

[4] = test system: human liver cancer cells HCCLM3; assay: CCK8 proliferation inhibition, HCCLM3; conditions: HCCLM3, 50 μM, 48 h
Protocol: as §1

[5] = test system: human liver cancer cells HepG2; assay: CCK8 proliferation inhibition, HepG2; conditions: HepG2, 50 μM, 48 h
Protocol: as §1

[6] = test system: human kidney clear cell adenocarcinoma cells 786-O; assay: CCK8 proliferation inhibition, 786-O; conditions: 50 μM, 48 h
Protocol: as §1

[7] = test system: human breast cancer cells MDA-MB-231; assay: CCK8 proliferation inhibition, MDA-MB-231; conditions: MDA-MB-231, 50 μM, 48 h
Protocol: as §1

[8] = test system: human endometrial cancer cells RL-952; assay: CCK8 proliferation inhibition, RL-952; conditions: RL-952, 50 μM, 48 h
Protocol: as §1

[9] = test system: human ovarian clear cell carcinoma cells ES-2; assay: CCK8 proliferation inhibition, ES-2; conditions: ES-2, 50 μM, 48 h
Protocol: as §1

[10] = test system: human ovarian cancer cells SKOV3; assay: CCK8 proliferation inhibition, SKOV3 (Example 5); conditions: SKOV3, 50 μM, 48 h
Protocol: as §1

[11] = test system: human colon cancer cells HT29; assay: CCK8 proliferation inhibition, HT29; conditions: HT29, 50 μM, 48 h
Protocol: as §1

[12] = test system: human prostate cancer cells 22RV1; assay: CCK8 proliferation inhibition, 22RV1; conditions: 22RV1, 50 μM, 48 h
Protocol: as §1

[13] = test system: human malignant melanoma cells A375; assay: CCK8 proliferation inhibition, A375; conditions: A375, 50 μM, 48 h
Protocol: as §1

[14] = test system: human osteosarcoma cells MG63; assay: CCK8 proliferation inhibition, MG63; conditions: MG63, 50 μM, 48 h
Protocol: as §1

[15] = test system: human multiple myeloma cells LP-1; assay: CCK8 proliferation inhibition, LP-1; conditions: LP-1, 50 μM, 48 h
Protocol: as §1

[16] = test system: human peripheral blood B lymphocytes RPMI 8226 in multiple myeloma; assay: CCK8 proliferation inhibition, RPMI 8226; conditions: RPMI 8226, 50 μM, 48 h
Protocol: as §1

[17] = test system: human acute lymphoblastic leukemia cells CEM/C1; assay: CCK8 proliferation inhibition, CEM/C1; conditions: CEM/C1, 50 μM, 48 h
Protocol: as §1

[18] = test system: human acute promyelocytic leukemia cells NB4; assay: CCK8 proliferation inhibition, NB4; conditions: NB4, 50 μM, 48 h
Protocol: as §1

[19] = test system: human acute myeloid leukemia cells KG-1; assay: CCK8 proliferation inhibition, KG-1; conditions: KG-1, 50 μM, 48 h
Protocol: as §1

[20] = test system: human chronic myeloid leukemia cells K562; assay: CCK8 proliferation inhibition, K562; conditions: K562, 50 μM, 48 h
Protocol: as §1

[21] = test system: human ovarian cancer Skvo3 cells; assay: Transwell metastasis inhibition, Skvo3; conditions: 48 h
Protocol: Melanoma, cervical cancer, ovarian cancer, liver cancer, and lung cancer cells were seeded into transwell chambers, with 100 μL per well. Different doses of the HMMW micropeptide and the novel polypeptide HMMW15-51 were added to each chamber as a treatment group, while no drug was added to a blank group. Then, 0.6 mL of a complete culture medium containing 10% FBS was added to the lower chambers of the transwell to stimulate cell metastasis, and the cells were cultured at 5% CO2 and 37° C. for 48 h. The culture solution was discarded from the wells. The cells were fixed with methanol at room temperature for 30 min, stained with 0.1% crystal violet at room temperature for 10 min, and rinsed with clean water. The upper layer nonmetastatic cells were wiped off with a cotton swab. The cells were observed under a microscope, and four fields of view were selected to take photos and count the cells. A metastasis inhibition (MI) was calculated according to a formula: […]
where Ntest represents the number of cell metastases in the treatment group, and Ncontrol represents the number of cell metastases in the blank control group.
Data was presented as mean±SD, and GraphPad Prism 5.0 statistical software was used.

## MERAGVPGFSPRRSSVEAKMQSTSCSVRKSSTVTAWPAVVLLLSWGQRRGG [HMMW]
[1]
  Inhibition (%): 50.542 ± 4.982 %
  OD: 0.486 ± 0.049
[2]
  Inhibition (%): 53.399 ± 3.971 %
  OD: 0.471 ± 0.040
[3]
  Inhibition (%): 63.071 ± 2.982 %
  OD: 0.350 ± 0.028
[4]
  Inhibition (%): 53.926 ± 7.634 %
  OD: 0.460 ± 0.076
[5]
  Inhibition (%): 52.579 ± 2.504 %
  OD: 0.509 ± 0.027
[6]
  Inhibition (%): 62.624 ± 7.014 %
  OD: 0.413 ± 0.078
[7]
  Inhibition (%): 65.216 ± 4.512 %
  OD: 0.429 ± 0.056
[8]
  Inhibition (%): 50.988 ± 3.897 %
  OD: 0.422 ± 0.034
[9]
  Inhibition (%): 51.916 ± 0.690 %
  OD: 0.464 ± 0.007
[10]
  Inhibition (%): 52.644 ± 4.018 %
  OD: 0.466 ± 0.040
[11]
  Inhibition (%): 50.805 ± 2.422 %
  OD: 0.479 ± 0.024
[12]
  Inhibition (%): 50.463 ± 1.693 %
  OD: 0.552 ± 0.019
[13]
  Inhibition (%): 49.572 ± 4.128 %
  OD: 0.491 ± 0.040
[14]
  Inhibition (%): 52.544 ± 2.562 %
  OD: 0.435 ± 0.024
[15]
  Inhibition (%): 47.561 ± 4.259 %
  OD: 0.462 ± 0.038
[16]
  Inhibition (%): 52.930 ± 4.562 %
  OD: 0.578 ± 0.056
[17]
  Inhibition (%): 46.518 ± 1.484 %
  OD: 0.630 ± 0.017
[18]
  Inhibition (%): 47.692 ± 4.919 %
  OD: 0.740 ± 0.070
[19]
  Inhibition (%): 37.600 ± 5.989 %
  OD: 0.725 ± 0.070
[20]
  Inhibition (%): 51.933 ± 2.838 %
  OD: 0.618 ± 0.036
[21]; Skvo3, 50 μmol/L
  Number of cell metastases: 118 ± 26.16
[21]; Skvo3 metastasis, 50 μmol/L
  Inhibition (%): 89.60*** %
